Measured values from patent US20260015360A1 (MOMA Therapeutics, Inc., priority 2023, published 2026).

How the values were obtained:
DLD1 WT cells = test: DLD1 viability assay (CellTiter-Glo, 7 days), DLD1 WT; type: cell-based; details: Homo sapiens, DLD-1, 168 h
Method: (§1) The seeding densities are pre-determined from the growth curve kinetics performed to ensure log linear phase of cell growth for these 2 cell lines. These assay plates are then placed in the incubator at 37° C., 5% CO2, relative humidity>90% for a few hours before addition of test compounds. Compounds are dispensed using the Tecan HPD300 or Echo based on the plate map in the appropriate wells of the 384-well plates. […] After addition of the test compounds, the plates are incubated at 37° C., 5% CO2, relative humidity>90% for 7 days. CellTiter-Glo (Promega Cat. No. G7573), ATP detection reagent is prepared according to manufacturer's specifications. Cell assay plates are removed from incubator and bring to room temperature (RT) by letting them sit at bench top for at least 15 min. Using the MultiDrop liquid handler or a multichannel pipette, 35 μL/well of CTG is added and the plates are then placed shakes for 5 seconds, RT. These plates are then incubated for 30 minutes in the dark at RT before measuring luminescence using Spectramax/Enspire/Ensight/Envision/PheraSTAR.

DLD1 BRCA2 (−/−) cells = test: DLD1 viability assay (CellTiter-Glo, 7 days), DLD1 BRCA2 (−/−); type: cell-based; details: Homo sapiens, DLD-1, 168 h, read-out: Viability IC50 (μM) DLD1 BRCA2 null
Method: as §1

COc1cnc(Cl)cc1-c1cc(C)ncc1C(=O)Nc1nc2ncc(N3CCC(OC(F)(F)F)CC3)nc2s1 [Example 489, 2′-chloro-5′-methoxy-6-methyl-N-(6-(4-(trifluoromethoxy)piperidin-1-yl)thiazolo[4,5-b]pyrazin-2-yl)-[4,4′-bipyridine]-3-carboxamide]
IC50 (DLD1 WT cells): > 10 µM
IC50 (DLD1 BRCA2 (−/−) cells): 0.001 to 0.1 µM

COc1cnc(Cl)cc1-c1cc(C)ncc1C(=O)Nc1nc2ncc(N3CCC4(CCCO4)CC3)nc2s1 [Example 459, N-(6-(1-oxa-8-azaspiro[4.5]decan-8-yl)thiazolo[4,5-b]pyrazin-2-yl)-2′-chloro-5′-methoxy-6-methyl-[4,4′-bipyridine]-3-carboxamide]
IC50 (DLD1 WT cells): > 10 µM
IC50 (DLD1 BRCA2 (−/−) cells): 0.001 to 0.1 µM

COc1cnc(Cl)cc1-c1cc(C)ncc1C(=O)Nc1nc2ncc(C3CCC(OC)(C(F)F)CC3)nc2s1 (stereo not drawn) [Example 383, 2′-chloro-N-(6-(4-(difluoromethyl)-4-methoxycyclohexyl)thiazolo [4,5-b]pyrazin-2-yl)-5′-methoxy-6-methyl-[4,4′-bipyridine]-3-carboxamide]
IC50 (DLD1 WT cells): > 10 µM
IC50 (DLD1 BRCA2 (−/−) cells): 0.001 to 0.1 µM

COc1cnc(Cl)cc1-c1cc(C)ncc1C(=O)Nc1nc2ncc(N3CC[C@@](C)(O)[C@@H](F)C3)nc2s1 (single isomer, unassigned) [Example 376, 2′-chloro-N-(6-((3S or R,4R or S)-3-fluoro-4-hydroxy-4-methylpiperidin-1-yl)thiazolo[4,5-b]pyrazin-2-yl)-5′-methoxy-6-methyl-[4,4′-bipyridine]-3-carboxamide]
IC50 (DLD1 WT cells): > 10 µM
IC50 (DLD1 BRCA2 (−/−) cells): 0.001 to 0.1 µM

COc1cnc(Cl)cc1-c1cc(C)ncc1C(=O)Nc1nc2ncc(N3C[C@H](C)O[C@@H](C)C3)nc2s1 [Example 436, 2′-chloro-N-(6-((2S,6S)-2,6-dimethylmorpholino)thiazolo [4,5-b]pyrazin-2-yl)-5′-methoxy-6-methyl-[4,4′-bipyridine]-3-carboxamide]
IC50 (DLD1 WT cells): > 10 µM
IC50 (DLD1 BRCA2 (−/−) cells): 0.001 to 0.1 µM

COc1cnc(Cl)cc1-c1cc(C)ncc1C(=O)Nc1nc2ncc([C@@H]3CCO[C@H](C)C3)nc2s1 (single isomer, unassigned) [Example 435, 2′-chloro-5′-methoxy-6-methyl-N-(6-((2R or S,4R or S)-2-methyltetrahydro-2H-pyran-4-yl)thiazolo[4,5-b]pyrazin-2-yl)-[4,4′-bipyridine]-3-carboxamide]
IC50 (DLD1 WT cells): > 10 µM
IC50 (DLD1 BRCA2 (−/−) cells): 0.001 to 0.1 µM

COc1cnc(Cl)cc1-c1cc(C)ncc1C(=O)Nc1nc2ncc(C3=CCC(OC)(C(F)F)CC3)nc2s1 (stereo not drawn) [Example 388, 2′-chloro-N-(6-(4-(difluoromethyl)-4-methoxycyclohex-1-en-1-yl)thiazolo[4,5-b]pyrazin-2-yl)-5′-methoxy-6-methyl-[4,4′-bipyridine]-3-carboxamide]
IC50 (DLD1 WT cells): > 10 µM
IC50 (DLD1 BRCA2 (−/−) cells): 0.001 to 0.1 µM

COc1cnc(Cl)cc1-c1cc(C)ncc1C(=O)Nc1nc2ncc(N3C[C@H](C)OC[C@H]3C)nc2s1 [Example 422, 2′-chloro-N-(6-((2S,5R)-2,5-dimethylmorpholino)thiazolo [4,5-b]pyrazin-2-yl)-5′-methoxy-6-methyl-[4,4′-bipyridine]-3-carboxamide]
IC50 (DLD1 WT cells): > 10 µM
IC50 (DLD1 BRCA2 (−/−) cells): 0.001 to 0.1 µM

COc1cnc(Cl)cc1-c1cc(C)ncc1C(=O)Nc1nc2ncc(N3CCN(CC(F)(F)F)CC3)nc2s1 [Example 471, 2′-chloro-5′-methoxy-6-methyl-N-(6-(4-(2,2,2-trifluoroethyl)piperazin-1-yl)thiazolo[4,5-b]pyrazin-2-yl)-[4,4′-bipyridine]-3-carboxamide]
IC50 (DLD1 WT cells): > 10 µM
IC50 (DLD1 BRCA2 (−/−) cells): 0.001 to 0.1 µM

COc1cnc(Cl)cc1-c1cc(C2CC2)ncc1C(=O)Nc1nc2ncc(-c3ccnc(C)c3)nc2s1 [Example 445, 2′-chloro-6-cyclopropyl-5′-methoxy-N-(6-(2-methylpyridin-4-yl)thiazolo[4,5-b]pyrazin-2-yl)-[4,4′-bipyridine]-3-carboxamide]
IC50 (DLD1 WT cells): > 10 µM
IC50 (DLD1 BRCA2 (−/−) cells): 0.001 to 0.1 µM

COc1cnc(Cl)cc1-c1cc(C)ncc1C(=O)Nc1nc2ncc(N3CC[C@](C)(OC)[C@H](F)C3)nc2s1 (single isomer, unassigned) [Example 362, 2′-chloro-N-(6-((3R or S,4S or R)-3-fluoro-4-methoxy-4-methylpiperidin-1-yl)thiazolo[4,5-b]pyrazin-2-yl)-5′-methoxy-6-methyl-[4,4′-bipyridine]-3-carboxamide]
IC50 (DLD1 WT cells): > 10 µM
IC50 (DLD1 BRCA2 (−/−) cells): 0.1 to 0.25 µM

COc1cnc(Cl)cc1-c1cc(C)ncc1C(=O)Nc1nc2ncc([C@H]3CCO[C@@H](C)C3)nc2s1 (single isomer, unassigned) [Example 434A, 2′-chloro-5′-methoxy-6-methyl-N-(6-((2S or R,4S or R)-2-methyltetrahydro-2H-pyran-4-yl)thiazolo[4,5-b]pyrazin-2-yl)-[4,4′-bipyridine]-3-carboxamide]
IC50 (DLD1 WT cells): > 10 µM
IC50 (DLD1 BRCA2 (−/−) cells): 0.001 to 0.1 µM

COc1cnc(Cl)cc1-c1cc(C)ncc1C(=O)Nc1nc2ncc(N3C[C@@H](C)OC[C@H]3C)nc2s1 [Example 409, 2′-chloro-N-(6-((2R,5R)-2,5-dimethylmorpholino)thiazolo [4,5-b]pyrazin-2-yl)-5′-methoxy-6-methyl-[4,4′-bipyridine]-3-carboxamide]
IC50 (DLD1 WT cells): > 10 µM
IC50 (DLD1 BRCA2 (−/−) cells): 0.001 to 0.1 µM

COc1cnc(Cl)cc1-c1cc(C)ncc1C(=O)Nc1nc2ncc(N3CCC(CC#N)CC3)nc2s1 [Example 467, 2′-chloro-N-(6-(4-(cyanomethyl)piperidin-1-yl)thiazolo[4,5-b]pyrazin-2-yl)-5′-methoxy-6-methyl-[4,4′-bipyridine]-3-carboxamide]
IC50 (DLD1 WT cells): > 10 µM
IC50 (DLD1 BRCA2 (−/−) cells): 0.001 to 0.1 µM

COc1cnc(Cl)cc1-c1cc(C)ncc1C(=O)Nc1nc2ncc(N3CCC3)nc2s1 [Example 487, N-(6-(azetidin-1-yl)thiazolo[4,5-b]pyrazin-2-yl)-2′-chloro-5′-methoxy-6-methyl-[4,4′-bipyridine]-3-carboxamide]
IC50 (DLD1 WT cells): > 10 µM
IC50 (DLD1 BRCA2 (−/−) cells): 0.001 to 0.1 µM

COc1cnc(Cl)cc1-c1cc(C)ncc1C(=O)Nc1nc2ncc(C3=CCC(O)(C(F)F)CC3)nc2s1 (stereo not drawn) [Example 396, 2′-chloro-N-(6-(4-(difluoromethyl)-4-hydroxycyclohex-1-en-1-yl)thiazolo[4,5-b]pyrazin-2-yl)-5′-methoxy-6-methyl-[4,4′-bipyridine]-3-carboxamide]
IC50 (DLD1 WT cells): > 10 µM
IC50 (DLD1 BRCA2 (−/−) cells): 0.001 to 0.1 µM

COc1cnc(Cl)cc1-c1cc(C)ncc1C(=O)Nc1nc2ncc(C3CCN(CC(F)(F)F)CC3)nc2s1 [Example 432, 2′-chloro-5′-methoxy-6-methyl-N-(6-(1-(2,2,2-trifluoroethyl)piperidin-4-yl)thiazolo[4,5-b]pyrazin-2-yl)-[4,4′-bipyridine]-3-carboxamide]
IC50 (DLD1 WT cells): > 10 µM
IC50 (DLD1 BRCA2 (−/−) cells): 0.001 to 0.1 µM

COc1cnc(Cl)cc1-c1cc(C)ncc1C(=O)Nc1nc2ncc(N3CCOCC3)nc2s1 [Example 483, 2′-chloro-5′-methoxy-6-methyl-N-(6-morpholinothiazolo[4,5-b]pyrazin-2-yl)-[4,4′-bipyridine]-3-carboxamide]
IC50 (DLD1 WT cells): > 10 µM
IC50 (DLD1 BRCA2 (−/−) cells): 0.1 to 0.25 µM

COc1cnc(Cl)cc1-c1cc(C)ncc1C(=O)Nc1nc2ncc(N3CCO[C@@H](C(F)(F)F)C3)nc2s1 [Example 440, (R)-2′-chloro-5′-methoxy-6-methyl-N-(6-(2-(trifluoromethyl)morpholino)thiazolo[4,5-b]pyrazin-2-yl)-[4,4′-bipyridine]-3-carboxamide]
IC50 (DLD1 WT cells): > 10 µM
IC50 (DLD1 BRCA2 (−/−) cells): 0.001 to 0.1 µM

COc1cnc(Cl)cc1-c1cc(C)ncc1C(=O)Nc1nc2ncc(C3=CCC(C)(C#N)CC3)nc2s1 (stereo not drawn) [Example 407, 2′-chloro-N-(6-(4-cyano-4-methylcyclohex-1-en-1-yl)thiazolo[4,5-b]pyrazin-2-yl)-5′-methoxy-6-methyl-[4,4′-bipyridine]-3-carboxamide]
IC50 (DLD1 WT cells): > 10 µM
IC50 (DLD1 BRCA2 (−/−) cells): 0.001 to 0.1 µM

COc1cnc(Cl)cc1-c1cc(C)ncc1C(=O)Nc1nc2ncc([C@@H]3CCOC(C)(C)C3)nc2s1 (single isomer, unassigned) [Example 382, (R or S)-2′-chloro-N-(6-(2,2-dimethyltetrahydro-2H-pyran-4-yl)thiazolo[4,5-b]pyrazin-2-yl)-5′-methoxy-6-methyl-[4,4′-bipyridine]-3-carboxamide]
IC50 (DLD1 WT cells): > 10 µM
IC50 (DLD1 BRCA2 (−/−) cells): 0.001 to 0.1 µM

COc1cnc(Cl)cc1-c1cc(C)ncc1C(=O)Nc1nc2ncc(C3CCOC(C)(C)C3)nc2s1 (stereo not drawn) [Example 389, 2′-chloro-N-(6-(2,2-dimethyltetrahydro-2H-pyran-4-yl)thiazolo[4,5-b]pyrazin-2-yl)-5′-methoxy-6-methyl-[4,4′-bipyridine]-3-carboxamide]
IC50 (DLD1 WT cells): > 10 µM
IC50 (DLD1 BRCA2 (−/−) cells): 0.001 to 0.1 µM

COc1cnc(Cl)cc1-c1cc(C)ncc1C(=O)Nc1nc2ncc(N3CCC(C#N)CC3)nc2s1 [Example 475, 2′-chloro-N-(6-(4-cyanopiperidin-1-yl)thiazolo[4,5-b]pyrazin-2-yl)-5′-methoxy-6-methyl-[4,4′-bipyridine]-3-carboxamide]
IC50 (DLD1 WT cells): > 10 µM
IC50 (DLD1 BRCA2 (−/−) cells): 0.001 to 0.1 µM

COc1cnc(Cl)cc1-c1cc(C)ncc1C(=O)Nc1nc2ncc([C@@H]3CCN(CC(F)(F)F)C3)nc2s1 (single isomer, unassigned) [Example 365, (R or S)-2′-chloro-5′-methoxy-6-methyl-N-(6-(1-(2,2,2-trifluoroethyl)pyrrolidin-3-yl)thiazolo[4,5-b]pyrazin-2-yl)-[4,4′-bipyridine]-3-carboxamide]
IC50 (DLD1 WT cells): > 10 µM
IC50 (DLD1 BRCA2 (−/−) cells): 0.001 to 0.1 µM
